Among the data in patent US11236086B2, “Substituted pyrrolopyridines as inhibitors of activin receptor-like kinase” (BLUEPRINT MEDICINES CORPORATION, priority 2017, dated 2022) are IC50 values, retold here.

Where only a bound is given, the exact number is not on record here.

For the experiment, the target named is T1, ALK2R206H (mutant ALK2, N-terminally tagged with GST) (Homo sapiens, UniProt Q04771, R206H).
T1 construct: purchased Carna Bioscience or ThermoFisher 09-148 or PV6232
T1 sequence (Q04771 21-509 R206H): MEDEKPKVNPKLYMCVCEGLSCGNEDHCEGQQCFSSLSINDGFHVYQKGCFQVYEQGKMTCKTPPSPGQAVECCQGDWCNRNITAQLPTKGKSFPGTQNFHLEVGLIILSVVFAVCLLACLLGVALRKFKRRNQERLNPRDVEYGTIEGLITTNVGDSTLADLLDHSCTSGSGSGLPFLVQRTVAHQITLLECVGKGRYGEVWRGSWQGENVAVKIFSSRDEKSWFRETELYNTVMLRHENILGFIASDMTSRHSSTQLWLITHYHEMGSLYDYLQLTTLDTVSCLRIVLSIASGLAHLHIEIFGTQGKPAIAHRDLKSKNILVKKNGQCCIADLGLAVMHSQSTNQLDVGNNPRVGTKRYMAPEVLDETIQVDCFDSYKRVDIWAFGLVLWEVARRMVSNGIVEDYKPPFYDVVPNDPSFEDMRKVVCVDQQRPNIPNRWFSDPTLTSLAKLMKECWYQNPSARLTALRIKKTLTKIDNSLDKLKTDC
Kind of experiment: ALK binding assay (LANTHASCREEN TR-FRET competitive binding, displacement of Kinase Tracer 178). To be noted: read-out: Binding Assay (IC50 class). As for the experimental part:
Example 10 ALK Binding Assays
Binding assays were conducted using the LANTHASCREEN® technology (ThermoFisher Scientific). LANTHASCREEN® is a competitive binding, displacement assay where the assumed steady state occupancy of the binding site is measured using a time-resolved, fluorescence energy transfer (TR-FRET) readout between a fluorescent tracer and Europium (Eu)-tagged antibody specific for the kinase or expression tag (e.g., GST) of interest. Displacement of the tracer by a compound of the disclosure reduces, and is directly proportional to, the TR-FRET between the tracer and the antibody. Tracer was used at a concentration equal to or near to its Kd for the kinase. The Eu-tagged antibody was typically used in excess to ensure sampling of all competent protein capable of binding the tracer.
For these assays, a mutant ALK2 was used that was N-terminally tagged with GST (ALK2R206H Carna Bioscience (09-148) or ALK2R206H ThermoFisher (PV6232)); a Eu-tagged anti-GST antibody (ThermoFisher) and Kinase Tracer 178 (ThermoFisher).
In all cases, the kinase (2-5 nM) was mixed with Eu-tagged antibody (4-10 nM) mix and tracer (50 nM) were incubated with test compound titrations prepared in 100% DMSO (1% DMSO final) for 30 minutes at room temperature. All reagents and compounds were dissolved in Kinase Buffer A (ThermoFisher) to achieve the final concentration. The plates were read on a PerkinElmer EnVision® multilabel plate reader or a BioTek Synergy Neo plate reader, and the assay signal was represented as a ratio of the TR-FRET emission (λex 330 nm, λ^em […] and λ^em 665 nm). This readout was normalized to 0% and 100% inhibited control wells, plotted against inhibitor concentration, and fitted to a 4-parameter log dose response curve.
The results of this assay are shown in Table 3 in the column labelled “Binding Assay” wherein “A” represents an IC50 of less than or equal to 10 nM; “B” represents an IC50 of greater than 10 nM and less than or equal to 50 nM; and “C” represents an IC50 of greater than 50 nM. Blank values in the table indicate that the particular compound was not tested in this assay.
On the technique in general: TR-FRET usually uses a lanthanide donor and a delayed reading to cut background.
The term IC50 denotes the concentration at which inhibition is half-maximal. Turning to `CCOC(=O)N1CCN(c2ccnc3[nH]c(-c4nn(C)cc4C#N)cc23)CC1` [Compound 72], the IC50 was 0.01 to 0.05 µM. Under `Cn1cc(-c2cc3c(N4CCN(C(=O)OCC5(C)CC5)CC4)ccnc3[nH]2)cn1` [Compound 142] stands not above 0.01 µM. Then `Cc1nsc(-c2cc3c(N4CCN(C(=O)OC5COC5)CC4)ccnc3[nH]2)n1` [Compound 182], with 0.01 to 0.05 µM; and `Cc1nc(-c2cc3c(N4CCN(C(=O)OC5CSC5)CC4)ccnc3[nH]2)cs1` [Compound 261], with not above 0.01 µM; and `Cc1ccc(-c2cc3c(N4CCN(C(=O)OC5COC5)CC4)ccnc3[nH]2)s1` [Compound 168], with not above 0.01 µM. Under `Cn1cc(-c2cc3c(N4CCN(C(=O)CCC5CCCC5)CC4)ccnc3[nH]2)cn1` [Compound 206] stands 0.01 to 0.05 µM; under `Cc1nc(-c2cc3c(N4CCN(C(=O)OC5COC5)CC4)ccnc3[nH]2)oc1C` [Compound 158], not above 0.01 µM. For `O=C(C1CC1)N1CCN(c2ccnc3[nH]c(-c4ccc(C(F)(F)F)cc4Cl)cc23)CC1` [Compound 393], the IC50 is more than 0.05 µM. Regarding `Cn1cnc(-c2cc3c(N4CCN(C(=O)O[C@@H]5CC(F)(F)C5(F)F)CC4)ccnc3[nH]2)c1` [Compound 400], the IC50 was not above 0.01 µM. Under `Cn1cc(C#N)c(-c2cc3c(N4CCN(C(=O)OC5COC5)CC4)ccnc3[nH]2)n1` [Compound 211] stands more than 0.05 µM; under `Cc1nc(-c2[nH]c3nccc(N4CCN(C(=O)OC5COC5)CC4)c3c2C#N)co1` [Compound 216], not above 0.01 µM; under `COc1ccc(-c2cc3c(N4CCN(C(=O)C5CC5)CC4)ccnc3[nH]2)cn1` [Compound 62], 0.01 to 0.05 µM. In the case of `Cc1c(-c2cc3c(N4CCN(C(=O)OC5COC5)CC4)ccnc3[nH]2)cnn1C` [Compound 156], the IC50 was not above 0.01 µM. Then `O=C(C1CC1)N1CCN(c2ccnc3[nH]c(-c4cccc(F)c4)cc23)CC1` [Compound 17], with 0.01 to 0.05 µM; and `Cn1cc(-c2cc3c(N4CCN(C(=O)C5CCC5)CC4)ccnc3[nH]2)cn1` [Compound 20], with not above 0.01 µM; and `O=C(OC1COC1)N1CCN(c2ccnc3[nH]c(-c4ncc(C(F)(F)F)s4)cc23)CC1` [Compound 409], with not above 0.01 µM. Under `CCc1c(-c2cnn(C)c2)[nH]c2nccc(N3CCN(C(=O)OC4COC4)CC3)c12` [Compound 237] stands not above 0.01 µM; under `COc1ccccc1-c1cc2c(N3CCN(C(=O)C4CC4)CC3)ccnc2[nH]1` [Compound 58], more than 0.05 µM. Then `CCOc1ccc(-c2cc3c(N4CCN(C(=O)C5CC5)CC4)ccnc3[nH]2)c(Cl)c1` [Compound 309], with more than 0.05 µM; and `CCS(=O)(=O)CCOC(=O)N1CCN(c2ccnc3[nH]c(-c4cnn(C)c4)cc23)CC1` [Compound 384], with 0.01 to 0.05 µM. Regarding `Cc1ncc(-c2[nH]c3nccc(N4CCN(C(=O)OC5COC5)CC4)c3c2C#N)o1` [Compound 217], the IC50 is not above 0.01 µM.

As to `Cc1cnc(-c2cc3c(N4CCN(C(=O)OC5COC5)CC4)ccnc3[nH]2)o1` [Compound 108], the IC50 was 0.01 to 0.05 µM. Then `Cn1cc(-c2cc3c(N4CCN(C(=O)OCCC5CC5)CC4)ccnc3[nH]2)cn1` [Compound 141], with not above 0.01 µM; and `CCOC(=O)N1CCN(c2ccnc3[nH]c(-c4cnn(C)c4)c(CC)c23)CC1` [Compound 99], with not above 0.01 µM; and `CC(C)(O)c1csc(-c2cc3c(N4CCN(C(=O)OC5COC5)CC4)ccnc3[nH]2)n1` [Compound 379], with not above 0.01 µM. Under `CCOC(=O)N1CCN(c2ccnc3[nH]c(-c4cnn(C)c4COC)cc23)CC1` [Compound 166] stands 0.01 to 0.05 µM; under `CC(C)(O)Cn1cc(-c2cc3c(N4CCN(C(=O)C5CC5)CC4)ccnc3[nH]2)cn1` [Compound 222], not above 0.01 µM; under `Cc1nc(-c2[nH]c3nccc(N4CCN(C(=O)OC5COC5)CC4)c3c2C#N)sc1C` [Compound 360], not above 0.01 µM. For `CCOC(=O)N1CCN(c2ccnc3[nH]c(-c4cc(C)ccn4)cc23)CC1` [Compound 25], the IC50 is not above 0.01 µM. For `Cc1nc(-c2[nH]c3nccc(N4CCN(C(=O)OC5COC5)CC4)c3c2C)sc1C` [Compound 318], the concentration for half-maximal inhibition (IC50) is not above 0.01 µM. Under `Cc1nnc(-c2cc3c(N4CCN(C(=O)OC5COC5)CC4)ccnc3[nH]2)s1` [Compound 181] stands not above 0.01 µM; under `CC(C)OCCOC(=O)N1CCN(c2ccnc3[nH]c(-c4cnn(C)c4)cc23)CC1` [Compound 247], not above 0.01 µM. Under `CCOC(=O)N1CCN(c2ccnc3[nH]c(-c4ncc(C#N)cn4)cc23)CC1` [Compound 61] stands not above 0.01 µM. As for `COc1ccc(-c2cc3c(N4CCN(C(=O)C5CC5)CC4)ccnc3[nH]2)c(F)c1` [Compound 138], the IC50 was not above 0.01 µM. `Cc1nc(-c2cc3c(N4CCN(C(=O)O[C@H]5CCC5(F)F)CC4)ccnc3[nH]2)cn1C` [Compound 327]: the IC50 was not above 0.01 µM. Under `Cn1cc(-c2[nH]c3nccc(N4CCN(C(=O)OC5COC5)CC4)c3c2C2CC2)cn1` [Compound 293] stands not above 0.01 µM.

With `O=C(OC1COC1)N1CCN(c2ccnc3[nH]c(-c4nc5c(s4)COCC5)c(Cl)c23)CC1` [Compound 443], the IC50 was not above 0.01 µM. Turning to `CCCOc1ccc(-c2cc3c(N4CCN(C(=O)C5CC5)CC4)ccnc3[nH]2)cc1` [Compound 196], the IC50 lay within 0.01 to 0.05 µM.

As for `CC(C)Oc1ccc(-c2cc3c(N4CCN(C(=O)C5CC5)CC4)ccnc3[nH]2)c(Cl)c1` [Compound 364], the IC50 was in the range of 0.01 to 0.05 µM. Under `CCOC(=O)N1CCN(c2ccnc3[nH]c(-c4ccc(C5(OC)CCOCC5)cn4)cc23)CC1` [Compound 430] stands not above 0.01 µM.

Turning to `N#Cc1ncc(-c2cc3c(N4CCN(C(=O)OC5COC5)CC4)ccnc3[nH]2)s1` [Compound 229], the IC50 was not above 0.01 µM. For `Cn1cc(-c2cc3c(N4CCN(C(=O)OCC5(C)COC5)CC4)ccnc3[nH]2)cn1` [Compound 236], the IC50 is not above 0.01 µM. Then `O=C(OC1COC1)N1CCN(c2ccnc3[nH]c(-c4ncccn4)cc23)CC1` [Compound 73], with not above 0.01 µM; and `Cn1cnc(-c2cc3c(N4CCN(C(=O)OC5COC5)CC4)ccnc3[nH]2)n1` [Compound 106], with 0.01 to 0.05 µM. Then `O=C(C1CC1)N1CCN(c2ccnc3[nH]c(-c4ccc(Oc5ccccc5)cc4)cc23)CC1` [Compound 361], with 0.01 to 0.05 µM; and `CC(C)C(=O)N1CCN(c2ccnc3[nH]c(-c4cnn(C)c4)cc23)CC1` [Compound 10], with 0.01 to 0.05 µM; and `O=C(C1CC1)N1CCN(c2ccnc3[nH]c(-c4ccc(C(F)(F)F)cc4)cc23)CC1` [Compound 253], with 0.01 to 0.05 µM. Under `Cn1cc(-c2cc3c(N4CCN(C(=O)[C@@H]5CCOC5)CC4)ccnc3[nH]2)cn1` [Compound 79] stands not above 0.01 µM. `O=C(C1CC1)N1CCN(c2ccnc3[nH]c(-c4ccccc4F)cc23)CC1` [Compound 18]: the IC50 lay within 0.01 to 0.05 µM. On to `Cn1cc(-c2cc3c(N4CCN(C(=O)OCCS(C)(=O)=O)CC4)ccnc3[nH]2)cn1` [Compound 338], for which the IC50 was in the range of 0.01 to 0.05 µM. As for `Cn1cc(-c2cc3c(N4CCN(C(=O)O[C@@H]5CCOC5)CC4)ccnc3[nH]2)cn1` [Compound 154], the IC50 is not above 0.01 µM. Then `COCCCOC(=O)N1CCN(c2ccnc3[nH]c(-c4cnn(C)c4)cc23)CC1` [Compound 163], with not above 0.01 µM. Then `O=C(OC1COC1)N1CCN(c2ccnc3[nH]c(-c4cn[nH]c4)cc23)CC1` [Compound 36], with not above 0.01 µM. Then `Cn1cc(-c2cc3c(N4CCN(C(=O)OCCC(C)(C)C)CC4)ccnc3[nH]2)cn1` [Compound 240], with 0.01 to 0.05 µM; and `CCC(=O)c1c(-c2cn(C)c(C)n2)[nH]c2nccc(N3CCN(C(=O)OC4COC4)CC3)c12` [Compound 404], with 0.01 to 0.05 µM. In the case of `CCOC(=O)N1CCN(c2ccnc3[nH]c(-c4scnc4C#N)cc23)CC1` [Compound 95], the IC50 is not above 0.01 µM.
